Results: patent publication US20250101062A1, “ANTIMICROBIAL PEPTIDES” (Board of Regents of the University of Nebraska, priority 2023, published 2025)
Where no end group is shown, it is not given here.

Experiments:
human red blood cells = test: Hemolytic assay; format: cell-based; settings: human, 1 h, 400 μM
Summary of the method: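 Washed human erythrocytes at 2% in isotonic saline incubated 1 h at 37 °C with serially diluted peptides. After centrifugation, released hemoglobin read at 545 nm relative to 1% Triton X-100; HC50 is the peptide concentration giving 50% lysis.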

P. aeruginosa E411-17 = test: Membrane depolarization (DiBAC4(3)); format: cell-based, Pseudomonas aeruginosa; settings: Example 2, PBS with glucose
Protocol: Bacterial membrane depolarization was conducted (Marks, et al. (2013) PLoS One 8(5):e63158). Briefly, an overnight culture of MRSA USA300 or P. aeruginosa E411-17 was inoculated into TSB and grown to exponential phase. Bacteria were washed with 1×PBS, re-suspended in twice the volume of 1×PBS containing 25 mM glucose, and incubated at 37° C. for 15 minutes. Then, 500 nM (final concentration) of the DiBAC4 (3) bis-(1, 3-dibutylbarbituric acid) trimethine oxonol (ANASPEC, CA) was added and vortexed gently. Aliquots of 90 μL of the energized bacteria solution were loaded to the 96 well plates (Corning COSTAR, AZ) and placed in a FLUOstar® Omega microplate reader (BMG LABTECH, NC). Fluorescence was read for 20 minutes at excitation and emission wavelengths of 485 nm and 520 nm, respectively. Then, 10 μL of peptide solutions was added and fluorescence readings were recorded for 40 minutes. Triton® X-100 (0.1%) was used as a positive control.

E. coli E423-17 = test: Membrane depolarization (DiBAC4(3)); format: cell-based, Escherichia coli; settings: Example 1
MRSA USA300 = test: Biofilm inhibition; format: cell-based, Staphylococcus aureus; settings: 0.5 to 2×MIC, 24 h
Protocol: Biofilm Inhibition. MRSA USA300 (10^5 CFU/mL) was prepared from the exponential phase. […] Media were then pipetted out, and the wells were washed with 1×PBS to remove planktonic cells. Live cells in biofilms were quantitated by XTT as described above.

trypsin = settings: peptide:protease 40:1, 37° C., 1 hour
Protocol: A solution of peptide/protease (40:1 molar ratio) was made in phosphate-buffered saline (PBS; pH 7.1, Gibco, NY) and incubated at 37° C. for 1 hour. As controls, peptides without proteases were also incubated in the same manner. Then, aliquots of 10 μL were transferred to a 96-well polystyrene microplate and mixed with the exponential-phase MRSA USA300 culture as performed in the antibacterial activity assays above.

S. aureus USA300 LAC = test: Scanning electron microscopy; format: cell-based, Staphylococcus aureus; settings: 2×MIC, 30 minutes
Protocol: The exponential-phase S. aureus USA300 LAC was treated with a 2×MIC of LL-37mini for 30 minutes. Samples were washed three times with 1×PBS and fixed with 2% paraformaldehyde and 2% glutaraldehyde in 0.1 M PBS. Next, the samples were washed with Sorensen's buffer and postfixed in 1% osmium tetroxide in water for 30 minutes. All samples were then washed in Sorensen's buffer and dehydrated through a graded ethanol series (50, 70, 90, 95, and 100% with ×3 changes). Subsequently, samples were placed in […] 100% for 10 minutes with three changes and left in HMDS in open dishes in the fume hood overnight to allow the HMDS to evaporate. The following day, the samples were mounted on 25 mm aluminum SEM stubs with carbon adhesive tabs. Silver paste was placed around the edges of the samples. Samples were sputter coated with 50 nm of gold/palladium in a Hummer VI sputter coater (Anatech Ltd., Battle Creek, MI) and examined in an FEI Quanta 200 SEM at the UNMC Electron Microscopy Core Facility.

With `CCCCCCCCCC(=O)N[C@@H](Cc1c[nH]c2ccccc12)C(=O)N[C@H](CC(N)=O)C(=O)N[C@@H](CC(=O)O)C(=O)N[C@@H]1C(=O)NCC(=O)N[C@@H](CCCN)C(=O)N[C@@H](CC(=O)O)C(=O)N[C@H](C)C(=O)N[C@@H](CC(=O)O)C(=O)NCC(=O)N[C@H](CO)C(=O)N[C@@H]([C@H](C)CC(=O)O)C(=O)N[C@@H](CC(=O)c2ccccc2N)C(=O)O[C@@H]1C` [Daptomycin] the hemolysis (human red blood cells) was “did not lyse human red blood cells even at 400 μM”.
In the case of `CC[C@H](C)[C@H](NC(=O)[C@H](CCCCN)NC(=O)[C@H](CCC(=O)O)NC(=O)[C@H](CCCCN)NC(=O)[C@H](CO)NC(=O)[C@H](CCCCN)NC(=O)[C@H](CCCNC(=N)N)NC(=O)[C@H](Cc1ccccc1)NC(=O)[C@H](Cc1ccccc1)NC(=O)[C@H](CC(=O)O)NC(=O)CNC(=O)[C@H](CC(C)C)NC(=O)[C@@H](N)CC(C)C)C(=O)NCC(=O)N[C@@H](CCCCN)C(=O)N[C@@H](CCC(=O)O)C(=O)N[C@@H](Cc1ccccc1)C(=O)N[C@@H](CCCCN)C(=O)N[C@@H](CCCNC(=N)N)C(=O)N[C@H](C(=O)N[C@H](C(=O)N[C@@H](CCC(N)=O)C(=O)N[C@@H](CCCNC(=N)N)C(=O)N[C@H](C(=O)N[C@@H](CCCCN)C(=O)N[C@@H](CC(=O)O)C(=O)N[C@@H](Cc1ccccc1)C(=O)N[C@@H](CC(C)C)C(=O)N[C@@H](CCCNC(=N)N)C(=O)N[C@@H](CC(N)=O)C(=O)N[C@@H](CC(C)C)C(=O)N[C@H](C(=O)N1CCC[C@H]1C(=O)N[C@@H](CCCNC(=N)N)C(=O)N[C@H](C(=O)N[C@@H](CCC(=O)O)C(=O)N[C@@H](CO)C(=O)O)[C@@H](C)O)C(C)C)[C@@H](C)CC)C(C)C)[C@@H](C)CC` [LL-37], the membrane depolarization (P. aeruginosa E411-17) is reported as “most powerful in membrane depolarization”.
In the case of RRWWRWWR-NH2 [W543], the membrane depolarization (E. coli E423-17) is reported as “some depolarization”, the “inhibition of biofilm formation” value (MRSA USA300) is reported as “more effective than daptomycin” and the “activity after protease incubation” value (trypsin) is reported as “started to lose activity”. The “cell morphology by SEM” value (S. aureus USA300 LAC) was “cell damages were evident”.
